Experimental data reported in patent US20060003382A1, “Compositions and methods for analyte detection” (priority 2004, published 2006).

Key:
avidin [1] = target: T1, avidin (Gallus gallus, UniProt P02701); conditions: non-covalent protein-small molecule interaction; cited from earlier work
egg white avidin = target: T2, egg white avidin (Gallus gallus, UniProt P02701); assay: Cyclic / square wave voltammetry of the complexes before and after addition of avidin; type: binding; conditions: for current signal after addition of biotin to the avidin-bound complex (displacement): 25 equiv (25-fold excess) of biotin; for current signal of the redox couple upon addition of avidin: CV, glassy carbon electrode
T2 construct: Egg white avidin (Molecular Probes); purchased Molecular Probes; host or cells: egg white
T2 sequence (P02701 25-152): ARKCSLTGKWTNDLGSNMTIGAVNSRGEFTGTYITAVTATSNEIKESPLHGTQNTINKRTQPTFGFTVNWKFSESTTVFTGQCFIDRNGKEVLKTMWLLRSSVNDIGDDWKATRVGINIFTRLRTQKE
Procedure: All operations involving Ru were carried out under argon according to standard Schlenk techniques. [(H2O)Ru(NH3)5]^2+ was either generated and isolated as the PF6^− salt according to the literature procedure and then used or the or Cl^− salt was used directly (See, e.g., Callahan et al., Inorg. Chem. 1975, 14, 1443-1453). Electrochemical experiments were carried out using a CH Instruments 660A workstation, a glassy carbon working electrode, a Ag/AgCl reference electrode and a platinum wire counter electrode.
A solution of [(4-BMP)Ru(NH3)5](PF6)2 in pH 9.3 phosphate buffer was prepared and the cyclic voltammogram obtained.
A solution of 1.0 mg [(4-DMP)Ru(NH3)5](PF6)2 in 4.2 mL 0.5M NaCl in H2O was prepared and the cyclic voltammogram obtained. […] To this was added 26 mg avidin, the CV obtained, and then 0.25 mL of a solution of methyl viologen (10 mg/5 mL; 7.77×10^−3M) was added and the CV remeasured.
A 19 mg portion of avidin was added, the CV and square wave voltammograms were recorded.
A 4.8×10^−5 M solution (0.75 mg) of [(4-DPEP)Ru(NH3)5](PF6)2 in pH 7.18 phosphate buffer was prepared and the cyclic voltammogram obtained.
The electrochemical experiments were performed in phosphate buffer at pH 9.3, 8.1, and 7.3, in 0.5M NaCl solution, and in pH 7.3 HEPES buffer.

avidin [2] = target: T1, avidin; assay: Oxidation by [Ru(NH3)6]^3+, decrease of UV-visible absorption at 410 nm over time, free vs avidin-bound; conditions: oxidant [Ru(NH3)6]^3+
Procedure: In the case of [(4-DPEP)Ru(NH3)5]^2+ the oxidant [Ru(NH3)6]^3+ was added and the decrease of the UV-visible absorption at 410 nm was monitored over time.

T1 sequence (P02701 25-152): as above

Molecule | kd of binding to avidin (avidin [1]) | current signal after addition of biotin to the avidin-bound complex (displacement) (egg white avidin) | current signal after addition of biotin to the avidin-bound complex (displacement) (egg white avidin; listed as [(4-DMP)Ru(NH3)5](PF6)2) | current signal of the redox couple upon addition of avidin (egg white avidin) | effect of added electrochemical mediators on the current signal of the Ru couple (egg white avidin; avidin present, mediators 4,4′-bipyridine and methyl viologen) | current signal of the redox couple upon addition of avidin (egg white avidin; listed as [(4-DPEP)Ru(NH3)5](PF6)2) | rate of oxidation, avidin-bound versus free complex (avidin [2])
C[C@@H]1NC(=O)N[C@@H]1CCCCCC(=O)O [desthiobiotin] | only slightly lower than that of biotin-avidin | – | – | – | – | – | –
[(4-DMP)RU(NH3)5][PF6]2 [[(4-DMP)Ru(NH3)5]^2+] | – | increased nearly to the original level | the signal was regenerated | decreased | no effect on the current signal | – | –
[(4-DPEP)Ru(NH3)5][PF6]2 [[(4-DPEP)Ru(NH3)5]^2+] | – | – | – | decreased the signal | – | disappeared upon addition of avidin | qualitatively slower
